Test results reported in patent US12454509B2, “Local anesthetics with selective-sensory nerve blockade” (Children's Medical Center Corporation, priority 2019, dated 2025).
pIC50: −log10 of the molar value.

Tests used:
[1] = test system: sciatic nerve; test: Sciatic nerve block in rats: duration of thermal nociceptive (sensory) block, modified hotplate test; type: in vivo, rat; conditions: for Block Duration (min) Sensory: rat sciatic nerve injection 0.3 mL; for Sensory:Motor Block Ratio: rat sciatic nerve block
Description: (§1) Sciatic Nerve Block and Neurobehavioral Testing. Animals were cared for in compliance with protocols approved by the Children's Hospital Animal Care and Use Committee, and the Massachusetts Institute of Technology Committee on Animal Care, which conformed to guidelines of the International Association for the Study of Pain. Adult male Sprague-Dawley rats (Charles River Laboratories) weighing 320-450 g were housed in groups, in a 6 AM to 6 PM light-dark cycle. Under brief isoflurane-oxygen anesthesia, a 23G needle was introduced postero-medial to the greater trochanter, until bone was contacted, and 0.3 mL of test solution was injected over the sciatic nerve. Thermal nociception was assessed by a modified hotplate test, and motor function via a weight-bearing test. […] Motor strength was assessed with a weight-bearing test. In brief, the animal was held over a digital balance such that it could bear weight with 1 hind paw at a time. The maximum weight that it could bear was recorded. The duration of motor blockade was defined as the time for weight bearing to return halfway to normal from maximal block. The halfway point for each rat was defined as […].

[2] = test system: sciatic nerve; test: Sciatic nerve block in rats: duration of motor block, weight-bearing test; type: in vivo; conditions: rat sciatic nerve injection 0.3 mL
Description: as §1

[3] = test system: PC12 cells; test: Cytotoxicity in PC12 cells; type: cell-based, rat; conditions: for cytotoxicity compared with ropivacaine and bupivacaine (in words): FIG. 1 / Table 2; for pIC50: Rattus norvegicus, PC-12, cytotoxicity, exposure up to 24 h
Description: (§2) C2C12 Mouse myoblasts [American Type Culture Collection (ATCC) CRL-1772] were cultured to proliferate in DMEM supplemented with 20% FBS and 100 Penicillin Streptomycin. Cell culture supplies were obtained from Invitrogen, unless otherwise noted. Cells were plated at 50,000 cells per mL in DMEM with 2% horse serum and 1% Penn Strep, and left to differentiate into myotubules for 10-14 days. During differentiation, media were exchanged every 2 to 3 days. Cell viability and proliferation were studied after exposures to drugs for up to 24 h. PC12 cells (ATCC, CRL-1721) originating from rat adrenal gland pheochromocytoma were grown in 24-well tissue culture dishes (CellBind; Corning) with F-12K (ATCC) supplemented with 12.5% horse serum (Gibco), 2.5% FBS (Gibco), and 1% Penn Strep (Sigma). For neuronal induction (PC12), cells were seeded at a relative low density of 5×10^4 cells/cm2 and 50 ng/mL NGF was added 24 h after seeding. Cell viability and proliferation were evaluated as for C2C12 cells. Experiments with PC12 cells were conducted for up to 24 hours.

[4] = test system: C2C12 Mouse myoblasts; test: Cytotoxicity in C2C12 myotubules; type: cell-based; conditions: C2C12 cells; for cytotoxicity compared with ropivacaine and bupivacaine (in words): FIG. 2 / Table 2; for pIC50: Mus musculus, cytotoxicity, exposure up to 24 h
Description: as §2

[5] = molecular target: hERG (Homo sapiens, UniProt Q12809); test: Whole-cell patch clamp, hERG current in stably transfected HEK cells; conditions: for hERG current amplitude, percent reduction / hERG current amplitude, percent reduction, mean ± SE: human
Chain of hERG (Q12809 whole entry): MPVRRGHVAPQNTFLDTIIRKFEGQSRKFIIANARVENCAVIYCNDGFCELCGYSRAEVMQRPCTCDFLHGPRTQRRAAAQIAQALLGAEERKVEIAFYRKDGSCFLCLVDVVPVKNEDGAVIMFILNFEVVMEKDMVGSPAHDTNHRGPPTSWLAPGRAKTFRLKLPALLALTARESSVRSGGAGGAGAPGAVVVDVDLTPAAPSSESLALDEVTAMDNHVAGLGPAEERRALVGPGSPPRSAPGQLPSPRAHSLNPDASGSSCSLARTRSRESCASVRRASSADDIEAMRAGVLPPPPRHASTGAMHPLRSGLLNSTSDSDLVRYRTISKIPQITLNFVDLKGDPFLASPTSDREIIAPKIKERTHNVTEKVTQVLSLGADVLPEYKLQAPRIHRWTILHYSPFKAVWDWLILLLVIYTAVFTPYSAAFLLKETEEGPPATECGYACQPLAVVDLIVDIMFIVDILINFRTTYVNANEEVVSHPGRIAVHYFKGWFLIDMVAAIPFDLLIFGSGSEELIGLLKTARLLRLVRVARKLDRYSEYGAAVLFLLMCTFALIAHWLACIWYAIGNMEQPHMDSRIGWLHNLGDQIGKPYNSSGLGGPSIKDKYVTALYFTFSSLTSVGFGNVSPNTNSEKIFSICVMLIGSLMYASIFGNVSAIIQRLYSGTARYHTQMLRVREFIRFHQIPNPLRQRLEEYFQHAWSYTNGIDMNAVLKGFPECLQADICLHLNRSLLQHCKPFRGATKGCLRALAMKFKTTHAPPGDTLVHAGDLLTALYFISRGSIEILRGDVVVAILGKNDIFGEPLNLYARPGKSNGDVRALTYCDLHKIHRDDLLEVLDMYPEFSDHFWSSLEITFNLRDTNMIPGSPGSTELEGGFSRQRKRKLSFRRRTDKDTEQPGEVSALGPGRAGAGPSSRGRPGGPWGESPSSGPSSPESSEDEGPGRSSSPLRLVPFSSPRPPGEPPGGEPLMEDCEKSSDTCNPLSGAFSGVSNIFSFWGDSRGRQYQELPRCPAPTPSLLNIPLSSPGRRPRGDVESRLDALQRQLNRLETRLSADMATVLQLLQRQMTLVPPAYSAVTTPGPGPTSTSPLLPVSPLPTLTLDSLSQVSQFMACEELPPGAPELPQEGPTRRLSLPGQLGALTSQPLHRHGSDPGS
Description: (§3) These experiments were designed to examine the acute effects of 4Sa (ZYK2312-1), 4Sb (ZYK2312-2), and bupivacaine on hERG and peak Nav1.5 currents recorded from stably transfected HEK cells.
(§4) Experimental Methods: Currents were measured using the whole-cell variant of the patch clamp method. Glass pipettes were pulled from borosilicate glass by a horizontal puller (Sutter Instruments, USA). Pipette tip resistance was approximately 1 to 2 MΩ when filled with internal solutions. Series resistance was compensated electronically by approximately 60-80%. Bath temperature was measured by a thermistor placed near the cell under study. An Axopatch 1-B amplifier (Axon Instruments, Foster City, CA) was used for whole-cell voltage clamping. Creation of voltage clamp pulses and data acquisition was controlled by a computer running pClamp software (ver 9.2 Axon Instruments). After rupture of the cell membrane (entering whole-cell mode), current kinetics and amplitudes were allowed to stabilize as the cell was dialyzed with internal solution and paced every 5 seconds (typically 2 to 3 minutes). Peak INa was elicited using a pulse pattern with fixed amplitudes (conditioning prepulse: −120 mV for 50 ms; depolarizing test step to −30 mV for 20 ms). hERG current was elicited with a 500 ms pulse to +10 mV followed by a 500 ms pulse to −40 mV (holding potential=[…]). Cells were perfused at each testing concentration until a steady-state was reached.
(§5) Raw data and mean±SEM are given. Data are presented as percent reduction of current amplitude. […] Each cell served as its own control. A nonlinear curve-fitting routine was utilized to fit a three-parameter Hill equation to the results using MicroCal Origin, version 6.0 software. The equation is:
(§6) [formula] where Vmax=100 and k and n are unconstrained variables.

[6] = molecular target: peak Nav1.5 (Homo sapiens, UniProt Q14524); test: Whole-cell patch clamp, peak Nav1.5 current in stably transfected HEK cells; conditions: for peak Nav1.5 current amplitude, percent reduction: individual cell (raw data); for inhibition at 1 µM: HEK293, read-out: peak Nav1.5 current amplitude, percent reduction, 1 μM, individual cell (raw data); for inhibition at 10 µM: HEK293, read-out: peak Nav1.5 current amplitude, percent reduction, 10 μM, individual cell (raw data); for inhibition at 1000 µM: HEK293, read-out: peak Nav1.5 current amplitude, percent reduction, 1000 μM, individual cell (raw data)
Chain of peak Nav1.5 (Q14524 whole entry): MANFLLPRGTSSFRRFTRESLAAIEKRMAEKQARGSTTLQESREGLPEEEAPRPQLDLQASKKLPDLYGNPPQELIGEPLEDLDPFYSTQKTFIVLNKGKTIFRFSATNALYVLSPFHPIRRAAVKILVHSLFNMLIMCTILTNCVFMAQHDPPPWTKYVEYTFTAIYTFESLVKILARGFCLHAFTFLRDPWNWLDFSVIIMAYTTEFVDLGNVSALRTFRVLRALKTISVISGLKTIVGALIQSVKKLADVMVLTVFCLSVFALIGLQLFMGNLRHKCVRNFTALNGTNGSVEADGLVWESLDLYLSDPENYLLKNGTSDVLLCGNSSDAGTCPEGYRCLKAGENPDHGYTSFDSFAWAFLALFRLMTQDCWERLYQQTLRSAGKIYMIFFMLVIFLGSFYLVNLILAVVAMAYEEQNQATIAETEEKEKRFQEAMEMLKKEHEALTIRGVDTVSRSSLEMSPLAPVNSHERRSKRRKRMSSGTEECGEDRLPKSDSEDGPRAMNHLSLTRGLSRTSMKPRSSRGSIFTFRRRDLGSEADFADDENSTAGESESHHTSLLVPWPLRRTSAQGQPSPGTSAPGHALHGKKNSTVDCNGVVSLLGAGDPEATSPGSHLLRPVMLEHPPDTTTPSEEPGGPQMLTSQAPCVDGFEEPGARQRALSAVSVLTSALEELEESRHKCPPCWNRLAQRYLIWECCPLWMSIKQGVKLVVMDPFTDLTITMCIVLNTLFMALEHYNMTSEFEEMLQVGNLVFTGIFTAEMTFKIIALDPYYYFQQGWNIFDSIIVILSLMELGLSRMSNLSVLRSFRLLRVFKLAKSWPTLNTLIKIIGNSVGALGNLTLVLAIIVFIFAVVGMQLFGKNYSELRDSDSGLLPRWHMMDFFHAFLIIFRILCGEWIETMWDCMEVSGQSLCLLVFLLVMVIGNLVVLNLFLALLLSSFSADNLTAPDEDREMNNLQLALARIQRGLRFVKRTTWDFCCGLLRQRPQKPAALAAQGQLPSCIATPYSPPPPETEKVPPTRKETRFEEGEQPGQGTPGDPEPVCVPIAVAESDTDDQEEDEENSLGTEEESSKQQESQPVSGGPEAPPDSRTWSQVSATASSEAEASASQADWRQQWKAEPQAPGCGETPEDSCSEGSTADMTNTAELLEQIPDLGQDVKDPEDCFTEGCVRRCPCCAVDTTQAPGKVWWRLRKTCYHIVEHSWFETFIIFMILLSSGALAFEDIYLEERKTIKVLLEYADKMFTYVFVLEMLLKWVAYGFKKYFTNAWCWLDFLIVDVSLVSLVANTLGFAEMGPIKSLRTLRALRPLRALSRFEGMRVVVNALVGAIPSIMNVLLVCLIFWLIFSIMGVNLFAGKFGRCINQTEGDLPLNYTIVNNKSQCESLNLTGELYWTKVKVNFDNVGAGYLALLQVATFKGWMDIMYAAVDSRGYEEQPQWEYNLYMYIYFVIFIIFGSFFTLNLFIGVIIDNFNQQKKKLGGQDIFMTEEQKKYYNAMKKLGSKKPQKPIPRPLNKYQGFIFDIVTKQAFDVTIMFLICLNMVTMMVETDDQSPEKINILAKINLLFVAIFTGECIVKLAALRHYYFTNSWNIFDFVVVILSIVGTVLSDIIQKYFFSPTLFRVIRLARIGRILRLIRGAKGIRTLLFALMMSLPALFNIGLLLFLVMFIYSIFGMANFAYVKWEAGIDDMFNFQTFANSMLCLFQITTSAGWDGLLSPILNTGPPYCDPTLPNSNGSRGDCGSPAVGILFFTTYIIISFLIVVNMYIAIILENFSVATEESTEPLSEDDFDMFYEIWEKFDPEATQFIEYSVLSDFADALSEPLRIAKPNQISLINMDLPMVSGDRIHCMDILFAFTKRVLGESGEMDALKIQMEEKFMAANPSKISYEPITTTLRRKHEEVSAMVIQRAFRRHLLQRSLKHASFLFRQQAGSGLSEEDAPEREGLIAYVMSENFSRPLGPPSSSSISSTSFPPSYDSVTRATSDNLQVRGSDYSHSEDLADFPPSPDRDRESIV
Description: as §3, §4, §5, §6

| Structure (SMILES) | Block Duration (min) Sensory ([1]; dose conc 10 mM) [min] | Block Duration (min) Motor ([2]; dose conc 10 mM) [min] | cytotoxicity compared with ropivacaine and bupivacaine (in words) [3] | cytotoxicity compared with ropivacaine and bupivacaine (in words) [4] | hERG current amplitude, percent reduction ([5]; 1 μM) [%] | hERG current amplitude, percent reduction, mean ± SE ([5]; 1 μM) [%] | hERG current amplitude, percent reduction, mean ± SE ([5]; 10 μM) [%] | hERG current amplitude, percent reduction, mean ± SE ([5]; 100 μM) [%] | hERG current amplitude, percent reduction, mean ± SE ([5]; 300 μM) [%] | hERG current amplitude, percent reduction, mean ± SE ([5]; 1000 μM) [%] | peak Nav1.5 current amplitude, percent reduction ([6]; 1 μM) [%] | peak Nav1.5 current amplitude, percent reduction, mean ± SE ([6]; 1 μM) [%] | peak Nav1.5 current amplitude, percent reduction ([6]; 10 μM) [%] | peak Nav1.5 current amplitude, percent reduction, mean ± SE ([6]; 10 μM) [%] | peak Nav1.5 current amplitude, percent reduction, mean ± SE ([6]; 100 μM) [%] | peak Nav1.5 current amplitude, percent reduction, mean ± SE ([6]; 300 μM) [%] | peak Nav1.5 current amplitude, percent reduction, mean ± SE ([6]; 1000 μM) [%] | inhibition at 1 µM [6] [%] | inhibition at 10 µM [6] [%] | inhibition at 1000 µM [6] [%] | also measured |
| --- | --- | --- | --- | --- | --- | --- | --- | --- | --- | --- | --- | --- | --- | --- | --- | --- | --- | --- | --- | --- | --- |
| CCC[N@+]1(CC(=O)OC)CCCC[C@H]1C(=O)Nc1c(C)cccc1C.[Br-] [Compound 4Sa, 2-((2,6-Dimethylphenyl)carbamoyl)-1-(2-methoxy-2-oxoethyl)-1-propylpiperidin-1-ium bromide] | 200 ± 60 | 100 ± 60 | significantly less cytotoxic than ropivacaine and bupivacaine | significantly less cytotoxic than ropivacaine and bupivacaine | 0 | 0 ± 0 | 3.6 ± 0.5 | 16.8 ± 4.0 | 31.3 ± 2.0 | 51.6 ± 2.2 | 0 | 0 ± 0 | 0 | 0 ± 0 | 2.3 ± 1.4 | 5.6 ± 1.8 | 14.6 ± 3.4 | 0 | 0 | 11.2 | pIC50 [3]: 1.72; pIC50 [4]: 1.84; pIC50 [5]: 3.09; inhibition at 300 µM ([6]; HEK293, read-out: peak Nav1.5 current amplitude, percent reduction, 300 μM, individual cell (raw data)): 3.7% |
| CCC[N@@+]1(CC(=O)OC)CCCC[C@H]1C(=O)Nc1c(C)cccc1C.[Br-] [Compound 4Sb, 2-((2,6-Dimethylphenyl)carbamoyl)-1-(2-methoxy-2-oxoethyl)-1-propylpiperidin-1-ium bromide] | 90 ± 30 | 0 | significantly less cytotoxic than ropivacaine and bupivacaine | significantly less cytotoxic than ropivacaine and bupivacaine | 0 | 0 ± 0 | 0 ± 0 | 1.5 ± 0.8 | 6.4 ± 1.1 | 18.3 ± 2.9 | 0 | 0 ± 0 | 0 | 0 ± 0 | 0 ± 0 | 4.2 ± 0.9 | 13.3 ± 2.9 | 0 | 0 | 13.8 | Sensory:Motor Block Ratio ([1]; dose conc 10 mM): ∞; Sensory:Motor Block Ratio ([1]; dose conc 15 mM): ∞; Block Duration (min) Sensory ([1]; dose conc 15 mM): 200 ± 30 min; Block Duration (min) Motor ([2]; dose conc 15 mM): 0 min; pIC50 ([3]; unit inferred): 1.70; pIC50 ([4]; unit inferred): 1.71; hERG current amplitude, percent reduction ([5]; 10 μM): 0%; peak Nav1.5 current amplitude, percent reduction ([6]; 100 μM): 0%; inhibition at 100 µM ([6]; HEK293, read-out: peak Nav1.5 current amplitude, percent reduction, 100 μM, individual cell (raw data)): 0% |
